In publication PMC6814738, “Bacterial MgrB peptide activates chemoreceptor Fpr3 in mouse accessory olfactory system and drives avoidance behaviour” (Nature Communications, 2019):
Where “and” joins values, the source holds several entries; their conditions need not be identical. Equal entries are not always repeated. Where two headings read alike, the source gives them in different places.

Experiments:
[1] = tested on: mouse Fpr3; conditions: cited from earlier work
Experimental: We estimate the fraction of knobs responding to f-MKKFRW as ~0.15%, which is similar to the fraction of cells in the VNE that express Fpr3[30]. Strikingly, the sensitivity and sequence-selectivity profile of these responses was nearly identical to the results that we obtained for heterologously expressed Fpr3. The detection threshold of native VSNs for f-MKKFRW was ≤0.1 µM (Fig. 4f), virtually the same as for Fpr3-expres ... || Given the importance of the olfactory system in a variety of behavioural avoidance and defence mechanisms[14],[62],[63], we reasoned that in vivo detection of MgrB peptide may evoke an avoidance reaction in mice. We devised a behavioural assay[14],[60] in order to determine whether direct nasal contact with MgrB peptide evokes unconditioned, innate avoidance (Fig. 8a and Methods). […] (Fig ... || We used custom-made peptides with a length of 6–21 amino acids to screen for agonists. Sequences of fMet peptides were designed according to motifs present at the N-termini of 15,125 specific bacterial proteins as annotated in UniProt. Peptides were chemically synthesised, purified, and verified by mass spectroscopy (MALDI-TOF) by commercial suppliers. Purity of all peptides was >95%. Source, sequence and purity of each peptide are listed in Supplementary Data 1. Lyophilised peptides were routinely dissolved in the Ca^2+ imaging assay buffer C1 (130 mM NaCl, 10 mM HEPES, 5 mM KCl, 2 mM CaCl2, ...

[2] = tested on: male mice; experiment: Behavioural avoidance test, FEU vs. FEU supplemented with peptide (Fig. 8, Supplementary Fig. 4); assay type: in vivo, mouse; conditions: for avoidance, in words: 100 µM, B6 mice (f-MKKFRW also ΔFpr3-lacZ+/+, cGαo+/−, Trpc2+/−); for avoidance index: 100 µM in FEU, mean ± s.e.m.; for Preference (%): group mean value, FEU vs FEU supplemented with 100 µM peptide
Experimental: These assays were adapted from behavioural procedures described previously[14],[60]. We tested avoidance by giving adult male mice (8–14 week old) of various genotypes a choice to freely investigate two types of chemical stimuli: FEU vs. FEU supplemented with a peptide. Mice were sexually naïve and not exposed to the test stimuli prior to the testing day. Mice were habituated for three days (40 min each day) to clean filter papers (2.5 cm diameter), each deposited in a sterile plastic culture dish and placed in opposite corners of the test cage (30 × 12 cm). After the third habituation period, the test subject was transferred into a new cage containing fresh filter papers/dishes with either of the two test stimuli. One filter paper was impregnated with 45 µl of fresh urine pooled from two sexually naïve female B6 mice (8–16 weeks old) in oestrus (FEU, female oestrous urine) and 5 µl physiological solution containing (in mM): NaCl, 130; KCl, 5; Na-Hepes, 10; CaCl2, 2; glucose, 10; pH = 7.4. For testing the effects of specific peptides, the second filter paper was impregnated with FEU supplemented with a given peptide (100 or 50 µM final concentration, dissolved in physiological solution). Direct physical contact was allowed. Behaviour was recorded for 10 min from the top of the cage. Mice were exposed only once to a given peptide solution, and were exposed to only one peptide stimulus per day. Stimuli were presented in randomised order. […] This investigative behaviour was quantified as the time spent in close contact with each filter paper, scored manually by an observer blind to the experimental conditions using Behavioural Observation Research Interactive Software (BORIS)[85]. Contact time was measured as the time during which the nose crossed the border of a petri dish containing impregnated filter paper. An avoidance index was calculated as (TP — aTU)/(aTP + aTU), with TP as the time an individual mouse investigated a FEU-peptide mixture, aTP as the average time of all tested mice investigating this stimulus and aTU as the average time of all mice investigating FEU without added peptide. Negative values represent avoidance and positive values represent attraction. For analysing investigation of sick conspecifics, B6 mice were injected either with LPS or PBS as described above. In total, 4 h post injection, these mice were anaesthetised with 165 mg/kg ketamine (Pharmacia GmbH, Berlin, Germany) and 11 mg/kg xylazine (Bayer Health Care, Leverkusen, Germany) and then used in behavioural tests.

[3] = tested on: vomeronasal sensory neurons (VSNs); experiment: VNO whole-mount en face confocal Ca2+ imaging of VSN dendritic knobs (Fig. 4, 5); assay type: cell-based, mouse; parameters: key to Ca2+ response of f-MKKFRW-responsive VSN knobs / Fpeak: normalised to knob resting fluorescence F0 before stimulation
Excerpt: Mice (6–20 week old, either sex) were euthanized by CO2 inhalation according to institutional guidelines. After decapitation, the skin was removed from the skull, the mandible was cut off and the cranium was opened by a sagittal cut, 1–2-mm right-lateral in parallel to the midline. The palate and the right incisor were removed and the hemisected skull was mounted in low-melting agarose (4%). The bony capsule of the VNO was opened with fine forceps and the nonsensory epithelium was stripped off. Tissue and cell debris were gently washed off, and the en face preparation was superfused with physiological S1 solution (120 mM NaCl, 25 mM NaHCO3, 5 mM KCl, 1 mM MgSO4, 1 mM CaCl2, 10 mM glucose, 5 mM BES, pH 7.3) saturated with carbogen (95% O2, 5% CO2).
Loading of the VNE with Rhod-2/AM (5–15 µM, 1 h) was performed in S1 solution under carbogen atmosphere at RT. Images were taken with an upright confocal laser scanning microscope (Leica TCS SP5 II, 20x water immersion objective HCX APO L20x/1.0w) equipped with Ar and He/Ne lasers. GFP was excited at 488 nm, Venus at 514 nm and Rhod-2 at 543 nm. Emission was measured at 490–520 nm (GFP), 520–600 nm (Venus) and 560–680 nm (Rhod-2). To minimise interference between Venus and Rhod-2 fluorescence, images were taken sequentially (sample interval per image, 3–4 s). Peptide stimuli were applied to the VNE surface with a local perfusion system which, when positioned close to the anterior end of the VNO, produced a continuous solution stream from rostral to caudal along the VNO axis. Data analysis was performed with the open source software ImageJ (NIH). Ca^2+ responses of individual dendritic knobs were normalised to the knob resting fluorescence level obtained before stimulation (ratio Fx/F0, Fx = actual fluorescence; F0 = mean fluorescence of 3–5 images before ligand application). Mapping was performed by superimposing Ca^2+ peak images onto images showing intrinsic fluorescence for specific markers.
Predator urine mix was composed of urine from mountain lion, coyote, bobcat, fox and marten (at equal volume ratios), purchased from Predatorpee (USA) and Kieferle (Germany). The fMet peptides were as described above. Stimuli were applied in S2 solution (140 mM NaCl, 5 mM KCl, 10 mM HEPES, 1 mM CaCl2, 1 mM MgCl2, 10 mM glucose, pH 7.3 with NaOH).

[4] = B6, n = 10-11, negative = avoidance

Question: Which “agonism at mouse Fpr3, in words” value [1] does the source give for W-peptide [reference compound] here?
Answer: agonists for mouse Fpr3

Question: With f-MFQQNK [reference compound] as the substance, how does the “activation of heterologously expressed Fpr3, in words” value [1] read?
Answer: failed to activate heterologously expressed Fpr3

Question: What about the “avoidance, in words” value [2] of the same substance?
Answer: failed to elicit avoidance

Question: What about the avoidance index [2, 4] of the same substance?
Answer: 0.04 ± 0.09

Question: Which Fpeak ([3]; Fig. 4h, mean of individual knobs, n = 103 f-MKKFRW, 21 f-MKKFRWVVL, 68 MKKFRW, 26 f-MGFFIS, 63 PUM) does the source give for MKKFRW [non-formylated MKKFRW peptide] here?
Answer: 0.00

Question: What about the “Ca2+ responses in VSNs, in words” value ([3]; VNE of adult B6 mice, f-MKKFRW 1 µM) of the same substance?
Answer: failed to evoke Ca^2+ responses in VSNs

Question: What about the “Ca2+ response of f-MKKFRW-responsive VSN knobs” value ([3]; adult B6 mice, mean ± s.d., N = 103 (f-MKKFRW), 21 (f-MKKFRWVVL), 68 (MKKFRW), 26 (f-MGFFIS), 63 (PUM), Fig. 4h) of the same substance?
Answer: 0.00 ± 0.00

Question: And the “avoidance, in words” value [2]?
Answer: failed to elicit avoidance

Question: What about the avoidance index [2, 4] of the same substance?
Answer: 0.07 ± 0.05

Question: And the “Preference Index” value ([2]; Fig. 8c, individual values, B6 mice)?
Answer: -0.0604 and 0.2531 and -0.1298 and -0.1953 and 0.1497 and 0.2996 and 0.2407 and -0.00533 and -0.09796 and 0.2025 and 0.1402

Question: And the “Preference Index” value ([2]; Fig. 8c, mean, B6 mice, n = 11 f-MKKFRW, 11 MKKFRW, 10 f-MGFFIS, 10 f-MEQQNK, FEU control -0.002)?
Answer: 0.07

Question: What about the “Preference Index” value ([2]; Fig. 8e, individual values, cGao +/-) of the same substance?
Answer: -0.2952 and -0.1477 and 0.0923 and 0.1621 and -0.0653 and -0.08718 and -0.2984 and 0.512 and -0.2293 and -0.2843 and -0.4122 and -0.3523

Question: What about the “Preference Index” value ([2]; Fig. 8e, individual values, cGao -/-) of the same substance?
Answer: -0.00407 and 0.301 and 0.1658 and 0.1525 and 0.9449 and 0.3984 and 0.4927 and 0.2412 and 0.4087 and 0.6592 and -0.3896 and -0.3365 and -0.3471

Question: And the “Preference Index” value ([2]; Fig. 8e, mean, cGao +/-, n = 13 f-MKKFRW, 12 MKKFRW, FEU control -0.0358)?
Answer: -0.12

Question: And the “Preference Index” value ([2]; Fig. 8e, mean, cGao -/-, n = 13, FEU control 0.15)?
Answer: 0.21

Question: What about the “Preference Index” value ([2]; Fig. 8f, individual values, Trpc2 +/-) of the same substance?
Answer: 0.2866 and 0.03638 and -0.02867 and 0.9217 and 0.4878 and -0.4504 and -0.342 and -0.3772 and -0.3362

Question: What about the “Preference Index” value ([2]; Fig. 8f, individual values, Trpc2 -/-) of the same substance?
Answer: 1.085 and 1.60E-05 and 0.07163 and 0.2257 and 0.5213 and -0.3383 and -0.4081 and -0.0323

Question: What about the “Preference Index” value ([2]; Fig. 8f, mean, Trpc2 +/-, n = 12 f-MKKFRW, 9 MKKFRW, FEU control -0.0531) of the same substance?
Answer: 0.022

Question: And the “Preference Index” value ([2]; Fig. 8f, mean, Trpc2 -/-, n = 11 f-MKKFRW, 8 MKKFRW, FEU control -0.10)?
Answer: 0.14

Question: What about the “Preference (%)” value ([2]; Fig. 8g, ∆Fpr3-lacZ +/+ males, FEU/FEU control -5.85844) of the same substance?
Answer: 7.718%

Question: What about the “Preference (%)” value ([2]; Fig. 8g, ∆Fpr3-lacZ -/- males, FEU/FEU control 2.58474) of the same substance?
Answer: 9.878%

Question: And the “Preference (%)” value ([2]; Fig. 8h, Trpc2 +/- males, FEU/FEU control 0.100694)?
Answer: 6.911%

Question: And the “Preference (%)” value ([2]; Fig. 8h, Trpc2 -/- males, FEU/FEU control -3.21189)?
Answer: -1.784%

Question: What about the “Preference Index” value ([2]; Fig. 8d, individual values, ∆Fpr3-lacZ +/+) of the same substance?
Answer: -0.2521 and -0.1287 and 0.07074 and 0.3269 and 0.2942 and 0.3844

Question: What about the “Preference Index” value ([2]; Fig. 8d, individual values, ∆Fpr3-lacZ -/-) of the same substance?
Answer: -0.1393 and 0.3319 and 0.8558 and 1.088 and -0.03627 and 0.0259 and -0.07697 and -0.00886 and -0.09833 and -0.1976 and 0.3575 and 0.2784

Question: And the “Preference Index” value ([2]; Fig. 8d, mean, ∆Fpr3-lacZ +/+, n = 9 f-MKKFRW, 6 MKKFRW, FEU control -0.06)?
Answer: 0.12

Question: What about the “Preference Index” value ([2]; Fig. 8d, mean, ∆Fpr3-lacZ -/-, n = 12, FEU control 0.19) of the same substance?
Answer: 0.20

Question: And the avoidance index ([2]; Trpc2 +/−)?
Answer: 0.02 ± 0.16

Question: And the avoidance index ([2]; Trpc2 −/−)?
Answer: 0.14 ± 0.17

Question: What about the avoidance index ([2]; cGαo +/−) of the same substance?
Answer: −0.12 ± 0.08

Question: And the avoidance index ([2]; cGαo −/−, n = 13)?
Answer: 0.21 ± 0.11

Question: What about the avoidance index ([2]; ∆Fpr3-lacZ +/+) of the same substance?
Answer: 0.12 ± 0.11

Question: And the avoidance index ([2]; ∆Fpr3-lacZ −/−, n = 12)?
Answer: 0.20 ± 0.12

Question: Which “agonism at mouse Fpr3, in words” value ([1]; signal peptide fragments) does the source give for “f-MLFYFS [signal peptide fragment identified as agonist for mouse Fpr3, reference compound]” here?
Answer: agonists for mouse Fpr3

Question: With f-MLFYLA as the substance, how does the “agonism at mouse Fpr3, in words” value ([1]; signal peptide fragments) read?
Answer: agonists for mouse Fpr3
